Columns and labels:
human AChE [1] = molecular target: T1, human AChE (Homo sapiens, UniProt P22303); settings: cited from earlier work
[2] = system: HEK293T Tau RD P301S FRET biosensor (tau biosensor); settings: previously published; cited from earlier work
human nSMase2 = molecular target: T2, human nSMase2 (Homo sapiens, UniProt Q9NY59); test: Amplex Red neutral sphingomyelinase enzyme activity assay; format: biochemical
T2 sequence (Q9NY59 1-655): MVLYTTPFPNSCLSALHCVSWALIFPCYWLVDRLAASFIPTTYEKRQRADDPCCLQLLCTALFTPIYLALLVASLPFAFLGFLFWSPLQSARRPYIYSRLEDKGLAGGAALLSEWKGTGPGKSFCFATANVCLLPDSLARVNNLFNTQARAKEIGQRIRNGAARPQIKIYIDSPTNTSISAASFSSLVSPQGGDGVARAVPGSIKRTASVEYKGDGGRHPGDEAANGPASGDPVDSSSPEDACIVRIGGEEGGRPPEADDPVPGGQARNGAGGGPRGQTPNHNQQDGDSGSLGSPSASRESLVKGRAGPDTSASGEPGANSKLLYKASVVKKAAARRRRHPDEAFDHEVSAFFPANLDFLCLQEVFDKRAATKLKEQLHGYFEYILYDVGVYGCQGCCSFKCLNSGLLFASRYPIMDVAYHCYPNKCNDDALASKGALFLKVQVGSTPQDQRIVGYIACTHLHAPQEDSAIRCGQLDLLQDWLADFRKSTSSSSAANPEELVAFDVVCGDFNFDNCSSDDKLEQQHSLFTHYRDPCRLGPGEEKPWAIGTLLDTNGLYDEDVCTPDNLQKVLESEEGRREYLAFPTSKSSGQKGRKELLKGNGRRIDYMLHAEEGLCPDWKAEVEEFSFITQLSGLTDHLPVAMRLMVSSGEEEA

human AChE [3] = molecular target: T1, human AChE; test: Amplex Red acetylcholinesterase; format: biochemical; settings: read-out: AChE inhibition IC50; dose-response; human AChE (Sigma)
[4] = system: HEK293T Tau RD P301S FRET biosensor (tau biosensor); test: EV-mediated transfer; format: cell-based; settings: 20 μM

T1 sequence (P22303 32-614): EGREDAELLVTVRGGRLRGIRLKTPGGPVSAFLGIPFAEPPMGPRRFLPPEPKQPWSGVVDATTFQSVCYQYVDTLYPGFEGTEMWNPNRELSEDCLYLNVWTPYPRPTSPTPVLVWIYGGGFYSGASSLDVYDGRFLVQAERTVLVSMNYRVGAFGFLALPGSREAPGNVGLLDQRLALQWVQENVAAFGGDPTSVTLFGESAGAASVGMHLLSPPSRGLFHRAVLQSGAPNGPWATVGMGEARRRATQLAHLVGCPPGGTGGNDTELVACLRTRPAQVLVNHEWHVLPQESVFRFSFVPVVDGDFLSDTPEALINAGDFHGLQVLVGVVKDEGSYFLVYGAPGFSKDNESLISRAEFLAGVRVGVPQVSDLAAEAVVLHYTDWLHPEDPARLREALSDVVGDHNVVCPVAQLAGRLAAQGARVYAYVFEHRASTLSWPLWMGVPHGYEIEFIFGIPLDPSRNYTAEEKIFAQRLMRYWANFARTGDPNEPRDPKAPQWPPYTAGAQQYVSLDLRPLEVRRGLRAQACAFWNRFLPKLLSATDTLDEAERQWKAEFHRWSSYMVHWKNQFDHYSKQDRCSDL

SMILES: O=c1[nH]c(=S)[nH]c(-c2ccccc2)c1Cc1c(O)ccc2ccccc12 [cambinol]
- AChE activity (human AChE [1]; previously published): no AChE activity
- tau seed transfer in the EMT assay [2]: shows inhibition of tau seed transfer

SMILES: CN1CC[C@]2(C)c3cc(OC(=O)Nc4ccccc4)ccc3N(C)[C@H]12 [Posiphen]
- AChE inhibitor activity (human AChE [1]; reported): weak AChE inhibitor
- IC50 (human nSMase2): > 50 µM

SMILES: CN1CC[C@@]2(C)c3cc(OC(=O)Nc4ccccc4)ccc3N(C)[C@@H]12 [phenserine]
- IC50 (human nSMase2): > 50 µM

SMILES: CN1c2ccc(OC(=O)Nc3ccccc3)cc2[C@]2(C)CCO[C@H]12 [compound 1, (−)-phensvenine]
- IC50 (human AChE [3]): 0.5 µM

SMILES: CCN(C)C(=O)Oc1cccc([C@H](C)N(C)C)c1 [rivastigmine]
- EV-mediated tau seed transfer, EMT assay [4]: partially suppress
- nSMase2 activity (human nSMase2): no nSMase2 activity

From article PMC8297715 (ACS chemical biology, 2020)
